Data published in ChEMBL document CHEMBL1201862, “PubChem BioAssay data set” (2004).
Active and inactive are the calls of the source.

Assays:
Caspase-9 = Caspase-9 (Homo sapiens, UniProt P55211); assay: caspase-9 enzyme inhibition, dose response, selectivity assay for caspase-6 inhibitor project, biochemical, fluorescence, plate reader, cherry-picked samples (AID 743293)
Troponin, cardiac muscle = Troponin, cardiac muscle (Homo sapiens, UniProt P19429+P45379+P63316); assay: inhibitors of cardiac thin filament calcium sensitivity, dose response, biochemical, fluorescence, cardiac regulated thin filaments, triplicate IC50 (AID 504742); assay type: protein-complex assay
[1] = biological target: T1, Small ubiquitin-related modifier 1 (Homo sapiens, UniProt P63165); assay: inhibitors of SUMO1 peptide binding, dose response, biochemical, fluorescence polarization, uHTS hits (AID 624382); assay type: functional; conditions: read-out: IC50_Mean
T1 sequence (P63165 whole entry): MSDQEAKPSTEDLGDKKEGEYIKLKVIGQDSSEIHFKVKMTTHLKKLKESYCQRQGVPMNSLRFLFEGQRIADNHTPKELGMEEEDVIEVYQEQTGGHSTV

[2] = biological target: T1, Small ubiquitin-related modifier 1; assay: inhibitors of SUMO1 partner interactions, dose response, biochemical, FRET (AID 624383); assay type: functional; conditions: read-out: IC50_Mean
[3] = biological target: NAD-dependent protein deacylase sirtuin-5, mitochondrial (Homo sapiens, UniProt Q9NXA8); assay: SIRT5 desuccinylase inhibitors, dose response, biochemical, fluorescence imaging, cherry-pick, set 5 (AID 720591);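 also: desuccinylation of succinyl peptide AMC substrate read as fluorescence after trypsin release; potency of inhibitors that lower fluorescence and may act on trypsin instead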
Caspase-8 = Caspase-8 (Homo sapiens, UniProt Q14790); assay: caspase-8 inhibition counter-screen, dose response, selectivity assay for caspase-6 inhibitor project, biochemical, Z-IETD-R110 fluorescence, cherry-picked samples (AID 743294)
Caspase-8, sequence (Q14790 217-374 limits assumed): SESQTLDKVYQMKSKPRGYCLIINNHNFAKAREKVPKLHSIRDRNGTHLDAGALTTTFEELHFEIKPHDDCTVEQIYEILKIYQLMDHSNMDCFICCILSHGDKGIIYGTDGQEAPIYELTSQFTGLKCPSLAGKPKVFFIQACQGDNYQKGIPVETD
Caspase-8, sequence (Q14790 385-479 limits assumed): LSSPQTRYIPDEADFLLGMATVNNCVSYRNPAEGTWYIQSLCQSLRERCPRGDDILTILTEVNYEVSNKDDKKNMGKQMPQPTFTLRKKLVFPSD

Genome polyprotein = Genome polyprotein (Hepatitis C virus, UniProt Q2Q167); assay: HCV core protein dimerization inhibitors, dose response, biochemical, TR-FRET (AID 2159); parameters: species or system Hepacivirus hominis;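 also: blocks dimerization of HCV core protein measured by TR-FRET between tagged core106 pairs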
Genome polyprotein, sequence (Q2Q167 whole entry): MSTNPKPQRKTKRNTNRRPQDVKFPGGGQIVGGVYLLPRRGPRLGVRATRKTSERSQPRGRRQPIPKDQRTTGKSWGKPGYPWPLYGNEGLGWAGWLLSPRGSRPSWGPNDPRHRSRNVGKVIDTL

Large T antigen = Large T antigen (Simian virus 40, UniProt P03070); assay type: functional, Betapolyomavirus macacae;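 also: Confirmatory-stage PubChem screen for compounds that inhibit SV40 T antigen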
Caspase-6 = biological target: T2, Caspase-6 (Homo sapiens, UniProt P55212); assay: human caspase-6 inhibitors, dose response, biochemical, VEID-R110 fluorescence, cherry-pick (AID 720632)
T2 sequence (P55212 whole entry): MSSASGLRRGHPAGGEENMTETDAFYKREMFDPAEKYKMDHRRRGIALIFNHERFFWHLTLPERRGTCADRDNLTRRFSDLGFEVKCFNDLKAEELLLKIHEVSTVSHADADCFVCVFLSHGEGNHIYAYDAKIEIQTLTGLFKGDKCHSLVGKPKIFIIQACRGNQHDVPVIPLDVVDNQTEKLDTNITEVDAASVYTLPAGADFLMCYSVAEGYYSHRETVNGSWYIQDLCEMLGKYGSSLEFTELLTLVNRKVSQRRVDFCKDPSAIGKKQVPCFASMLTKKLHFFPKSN

[4] = biological target: DNA damage-inducible transcript 3 protein (Mus musculus, UniProt P35639); assay type: functional, Cricetulus griseus
DNA damage-inducible transcript 3 protein, sequence (P35639 whole entry): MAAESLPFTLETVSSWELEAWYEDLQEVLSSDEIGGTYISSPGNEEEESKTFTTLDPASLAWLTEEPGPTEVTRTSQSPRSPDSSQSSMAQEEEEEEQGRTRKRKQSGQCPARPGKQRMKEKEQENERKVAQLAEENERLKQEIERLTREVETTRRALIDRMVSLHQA

[5] = biological target: T3, Ubiquitin-conjugating enzyme E2 N (Homo sapiens, UniProt P61088); assay type: functional;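 also: Dose-response confirmation in a TR-FRET assay detecting UBC13-driven polyubiquitin chain formation, inhibition measured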
T3 sequence (P61088 whole entry): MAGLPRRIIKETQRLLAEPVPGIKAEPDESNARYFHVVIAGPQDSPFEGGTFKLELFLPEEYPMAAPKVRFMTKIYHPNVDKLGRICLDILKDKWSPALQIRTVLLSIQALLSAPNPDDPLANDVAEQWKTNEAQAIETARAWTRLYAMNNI

[6] = biological target: DNA dC->dU-editing enzyme APOBEC-3G (Homo sapiens, UniProt Q9HC16); assay: Dose Response confirmation of small molecule APOBEC3G DNA Deaminase Inhibitors via a fluorescence-based single-stranded DNA deaminase assay. [Related pubchem assays (depositor defined):AID493012, AID493028]; assay type: functional
DNA dC->dU-editing enzyme APOBEC-3G, sequence (Q9HC16 whole entry): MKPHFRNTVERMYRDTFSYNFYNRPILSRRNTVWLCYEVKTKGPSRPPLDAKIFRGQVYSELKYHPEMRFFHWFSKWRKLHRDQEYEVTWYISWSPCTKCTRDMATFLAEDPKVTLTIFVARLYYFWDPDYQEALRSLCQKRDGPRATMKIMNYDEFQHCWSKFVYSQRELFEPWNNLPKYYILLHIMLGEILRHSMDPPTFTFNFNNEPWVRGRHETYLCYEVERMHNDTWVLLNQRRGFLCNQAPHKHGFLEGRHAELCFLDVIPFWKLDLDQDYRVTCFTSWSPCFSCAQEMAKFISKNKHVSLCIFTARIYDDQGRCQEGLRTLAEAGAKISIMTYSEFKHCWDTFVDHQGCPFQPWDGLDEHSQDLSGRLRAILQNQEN

[7] = biological target: DNA dC->dU-editing enzyme APOBEC-3A (Homo sapiens, UniProt P31941); assay: APOBEC3A DNA deaminase inhibitors, dose response, biochemical (AID 504722); assay type: functional
DNA dC->dU-editing enzyme APOBEC-3A, sequence (P31941 whole entry): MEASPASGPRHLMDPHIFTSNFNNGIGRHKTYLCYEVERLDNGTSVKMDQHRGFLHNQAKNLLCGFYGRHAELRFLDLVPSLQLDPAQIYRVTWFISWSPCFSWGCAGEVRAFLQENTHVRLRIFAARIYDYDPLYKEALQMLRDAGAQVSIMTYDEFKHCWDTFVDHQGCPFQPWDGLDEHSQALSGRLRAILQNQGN

Leucine aminopeptidase = biological target: T4, Leucine aminopeptidase (Plasmodium falciparum 3D7, UniProt Q8IL11); assay: P. falciparum M17LAP inhibitors, primary screen, biochemical, fluorogenic H-Leu-NHMec substrate, 1536-well (AID 1619); assay type: functional
T4 sequence (Q8IL11 whole entry): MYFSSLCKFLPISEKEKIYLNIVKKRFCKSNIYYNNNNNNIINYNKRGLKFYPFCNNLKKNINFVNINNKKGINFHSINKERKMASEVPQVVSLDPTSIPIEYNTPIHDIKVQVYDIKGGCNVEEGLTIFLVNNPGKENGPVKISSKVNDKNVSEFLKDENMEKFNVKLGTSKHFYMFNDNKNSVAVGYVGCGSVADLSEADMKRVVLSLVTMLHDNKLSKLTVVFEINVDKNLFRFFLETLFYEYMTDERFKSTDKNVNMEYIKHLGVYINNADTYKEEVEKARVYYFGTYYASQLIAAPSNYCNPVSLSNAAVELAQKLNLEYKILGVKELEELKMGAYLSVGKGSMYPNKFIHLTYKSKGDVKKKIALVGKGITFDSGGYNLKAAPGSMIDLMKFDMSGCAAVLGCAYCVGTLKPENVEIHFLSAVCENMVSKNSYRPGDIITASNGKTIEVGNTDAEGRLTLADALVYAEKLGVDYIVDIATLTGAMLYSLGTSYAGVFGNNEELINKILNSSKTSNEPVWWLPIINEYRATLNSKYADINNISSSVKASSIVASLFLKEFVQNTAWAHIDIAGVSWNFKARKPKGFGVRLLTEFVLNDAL

[8] = biological target: T5, Voltage-gated N-type calcium channel alpha-1B subunit/Amyloid beta A4 precursor protein-binding family A member 1 (Homo sapiens, UniProt Q00975+Q02410); assay type: protein assay
T5 sequence (Q00975 whole entry): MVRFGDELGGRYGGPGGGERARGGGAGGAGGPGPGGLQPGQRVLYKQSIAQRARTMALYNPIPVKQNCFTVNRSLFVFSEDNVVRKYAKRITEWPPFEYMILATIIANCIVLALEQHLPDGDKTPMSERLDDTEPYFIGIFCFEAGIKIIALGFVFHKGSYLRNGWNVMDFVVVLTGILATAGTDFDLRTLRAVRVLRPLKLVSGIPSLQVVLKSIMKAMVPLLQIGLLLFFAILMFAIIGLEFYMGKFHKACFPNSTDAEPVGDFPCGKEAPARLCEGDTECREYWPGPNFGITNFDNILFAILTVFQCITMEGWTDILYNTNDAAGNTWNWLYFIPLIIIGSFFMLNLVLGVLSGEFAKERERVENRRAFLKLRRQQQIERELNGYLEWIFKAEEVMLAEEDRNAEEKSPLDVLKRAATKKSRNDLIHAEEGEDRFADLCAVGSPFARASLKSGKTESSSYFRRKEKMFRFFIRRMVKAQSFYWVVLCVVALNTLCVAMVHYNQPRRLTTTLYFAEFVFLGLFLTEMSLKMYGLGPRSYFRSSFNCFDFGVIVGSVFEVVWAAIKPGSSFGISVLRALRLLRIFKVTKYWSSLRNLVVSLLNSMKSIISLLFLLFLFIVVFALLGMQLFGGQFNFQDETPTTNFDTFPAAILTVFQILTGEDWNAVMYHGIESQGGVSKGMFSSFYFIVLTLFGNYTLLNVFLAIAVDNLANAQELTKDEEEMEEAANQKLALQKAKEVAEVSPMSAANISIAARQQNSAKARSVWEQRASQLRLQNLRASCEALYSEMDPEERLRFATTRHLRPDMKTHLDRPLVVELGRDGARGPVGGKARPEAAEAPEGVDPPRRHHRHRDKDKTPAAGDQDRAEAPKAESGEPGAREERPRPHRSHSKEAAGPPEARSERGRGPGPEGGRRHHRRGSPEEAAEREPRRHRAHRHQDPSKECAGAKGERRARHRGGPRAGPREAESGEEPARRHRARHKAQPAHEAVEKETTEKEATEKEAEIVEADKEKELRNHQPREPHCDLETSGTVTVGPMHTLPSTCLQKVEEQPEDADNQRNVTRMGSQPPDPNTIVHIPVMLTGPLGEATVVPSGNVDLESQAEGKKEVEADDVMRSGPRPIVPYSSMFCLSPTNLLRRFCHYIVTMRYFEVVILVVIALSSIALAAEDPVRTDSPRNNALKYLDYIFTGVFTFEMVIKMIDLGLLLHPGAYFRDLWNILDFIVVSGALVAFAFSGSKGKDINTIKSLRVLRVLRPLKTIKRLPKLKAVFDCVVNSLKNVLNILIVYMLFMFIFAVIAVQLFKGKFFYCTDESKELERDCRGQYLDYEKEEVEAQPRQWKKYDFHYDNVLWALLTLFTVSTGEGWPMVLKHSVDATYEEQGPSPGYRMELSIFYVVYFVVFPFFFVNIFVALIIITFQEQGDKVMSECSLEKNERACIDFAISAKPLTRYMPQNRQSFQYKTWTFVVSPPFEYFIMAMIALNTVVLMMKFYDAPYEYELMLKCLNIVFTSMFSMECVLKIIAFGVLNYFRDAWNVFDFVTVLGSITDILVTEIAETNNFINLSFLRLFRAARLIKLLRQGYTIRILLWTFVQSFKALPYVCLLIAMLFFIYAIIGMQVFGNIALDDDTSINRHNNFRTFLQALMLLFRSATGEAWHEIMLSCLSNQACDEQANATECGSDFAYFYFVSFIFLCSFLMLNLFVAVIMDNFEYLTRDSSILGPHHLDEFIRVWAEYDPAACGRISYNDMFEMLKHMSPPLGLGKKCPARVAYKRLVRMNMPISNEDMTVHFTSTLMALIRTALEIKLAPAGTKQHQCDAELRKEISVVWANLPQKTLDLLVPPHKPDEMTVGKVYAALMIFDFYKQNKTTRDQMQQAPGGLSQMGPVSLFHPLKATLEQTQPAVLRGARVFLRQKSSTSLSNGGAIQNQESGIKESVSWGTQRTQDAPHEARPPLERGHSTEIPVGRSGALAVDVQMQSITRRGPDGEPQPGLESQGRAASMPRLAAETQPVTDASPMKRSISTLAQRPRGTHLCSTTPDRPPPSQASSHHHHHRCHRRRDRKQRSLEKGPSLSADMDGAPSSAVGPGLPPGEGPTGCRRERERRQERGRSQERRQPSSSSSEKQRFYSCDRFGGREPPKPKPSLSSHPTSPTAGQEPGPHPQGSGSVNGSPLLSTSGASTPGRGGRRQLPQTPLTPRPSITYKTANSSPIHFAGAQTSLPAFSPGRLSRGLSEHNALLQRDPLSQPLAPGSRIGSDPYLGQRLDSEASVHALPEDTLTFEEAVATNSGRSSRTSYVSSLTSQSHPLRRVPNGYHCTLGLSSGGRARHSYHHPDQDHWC
T5 sequence (Q02410 whole entry): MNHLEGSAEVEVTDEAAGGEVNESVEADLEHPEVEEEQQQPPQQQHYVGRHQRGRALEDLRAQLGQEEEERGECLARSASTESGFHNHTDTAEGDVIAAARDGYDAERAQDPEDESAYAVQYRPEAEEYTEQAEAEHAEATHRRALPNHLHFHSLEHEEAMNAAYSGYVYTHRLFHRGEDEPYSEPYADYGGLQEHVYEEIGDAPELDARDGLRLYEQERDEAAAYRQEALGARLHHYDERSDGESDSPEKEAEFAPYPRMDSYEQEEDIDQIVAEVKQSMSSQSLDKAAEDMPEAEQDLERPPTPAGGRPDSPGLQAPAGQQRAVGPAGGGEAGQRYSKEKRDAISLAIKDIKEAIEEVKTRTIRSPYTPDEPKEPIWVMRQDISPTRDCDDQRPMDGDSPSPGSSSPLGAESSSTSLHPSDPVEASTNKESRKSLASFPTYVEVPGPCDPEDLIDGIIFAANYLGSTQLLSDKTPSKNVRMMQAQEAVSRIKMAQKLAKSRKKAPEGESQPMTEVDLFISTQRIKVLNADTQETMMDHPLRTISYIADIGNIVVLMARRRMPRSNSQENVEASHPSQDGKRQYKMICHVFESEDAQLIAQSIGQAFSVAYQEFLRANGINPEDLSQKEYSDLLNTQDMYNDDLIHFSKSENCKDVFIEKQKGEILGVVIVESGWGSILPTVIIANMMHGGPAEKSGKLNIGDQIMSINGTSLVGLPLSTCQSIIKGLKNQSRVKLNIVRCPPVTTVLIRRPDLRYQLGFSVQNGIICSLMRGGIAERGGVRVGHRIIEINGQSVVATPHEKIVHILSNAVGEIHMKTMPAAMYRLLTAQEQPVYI

[9] = biological target: T5, Voltage-gated N-type calcium channel alpha-1B subunit/Amyloid beta A4 precursor protein-binding family A member 1; assay type: protein assay; remark: listed apart in the source

Caspase-9, sequence (P55211 1-315 limits assumed): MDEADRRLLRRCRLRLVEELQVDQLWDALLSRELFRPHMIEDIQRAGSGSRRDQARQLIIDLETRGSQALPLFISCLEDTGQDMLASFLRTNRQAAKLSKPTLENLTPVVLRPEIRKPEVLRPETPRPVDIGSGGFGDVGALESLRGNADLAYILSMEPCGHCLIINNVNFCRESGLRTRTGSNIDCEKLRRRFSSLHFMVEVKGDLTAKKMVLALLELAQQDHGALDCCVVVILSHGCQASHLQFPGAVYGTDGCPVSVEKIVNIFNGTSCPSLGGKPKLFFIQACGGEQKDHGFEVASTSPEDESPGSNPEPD
Caspase-9, sequence (P55211 331-416 limits assumed): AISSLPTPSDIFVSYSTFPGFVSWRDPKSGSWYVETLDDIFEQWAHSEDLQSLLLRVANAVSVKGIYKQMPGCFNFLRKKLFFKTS

COCCN(C(=O)COC(=O)c1cc2c(s1)CCC2)c1c(N)n(Cc2ccccc2)c(=O)[nH]c1=O
AC50 (Caspase-9): 12.1 µM (active)
IC50 (Troponin, cardiac muscle): 19.7 µM (inactive)
IC50 [1]: > 66.6 µM (inactive)
IC50 [2]: 1.42 µM (active)
AC50 [3]: > 30 µM (inactive)
AC50 (Caspase-8): > 70 µM (inactive)
IC50 (Genome polyprotein): 48.6 µM (not active)
IC50 (Large T antigen): 57.7 µM (active)
AC50 (Caspase-6): 0.198 µM (active)

CCOC(=O)c1cc(-c2ccccc2)nc2c1c(C)nn2-c1ccccn1
Absolute IC50 (CHOP) [4]: 10 µM
IC50 [5]: > 20 µM (inactive)

Sc1n[nH]c(C2CCCCC2)n1
IC50 [6]: 8.98 µM (active)
IC50 [7]: > 100 µM (inactive)
IC50 (Leucine aminopeptidase): 13.8 µM (active)

COc1ccc(NC(=O)c2cc3c(=O)n(C)c4ccccc4c3s2)cc1OC
IC50 [8]: > 50 µM (inactive)
IC50 [9]: 8 µM (active)
